Results published in patent publication US11191756B2, “Dosing and effect of C5a antagonist with ANCA-associated vasculitis” (CHEMOCENTRYX, INC., priority 2018, dated 2021).
“Also recorded” adds a separate entry of the source.

Assays:
Format in all cases: in vivo, human
sC5b-9 = experiment: Plasma sC5b-9 by ELISA in AAV patients of the CLEAR trial; settings: for sC5b-9, change in plasma level (Summary of Results): AAV patients, 12 week treatment period, all also received cyclophosphamide or rituximab; for circulating sC5b-9 levels, change from baseline: any treatment group, 6 h, days 8, 29, 85
Experimental: (§1) The CLEAR trial (Jayne D R W, et al. JASN 2017; 28:2756) compared 3 regimens in 67 patients with AAV: (1) full dose prednisone (60 mg daily, tapered); (2) avacopan 30 mg twice daily plus low dose prednisone (20 mg, tapered); (3) avacopan 30 mg twice daily plus no prednisone. All also received either cyclophosphamide or rituximab. There was a 12-week treatment period with 12 week follow-up period
(§2) Plasma samples were collected from AAV patients who participated in CLEAR study at baseline and at 6 hour, Days 8, 29, and 85 during treatment. Plasma samples from 20 health controls matched for age, gender and ethnic background were collected at UNC Kidney Center.
(§3) EDTA whole blood was kept on ice immediately after collection and centrifuged at 4° C. for plasma preparation. Plasma samples were stored at −80° C. freezer until analysis for complement Bb, C5a, […] and properdin by ELISA in one thaw.
(§4) Paired t-test was used for within group comparison and unpaired t-test was used for between group comparisons using log transformed data. P-values were corrected for multiple comparisons.

complement factor Bb = experiment: Plasma complement factor Bb by ELISA in AAV patients of the CLEAR trial; settings: for Bb, change in plasma level (Summary of Results): AAV patients, 12 week treatment period, all also received cyclophosphamide or rituximab
Experimental: as §1, §2, §3, §4

patients with AAV = experiment: CLEAR trial clinical outcome in ANCA-associated vasculitis; settings: for clinical benefit / improvement in AAV: 12 week treatment period, avacopan 30 mg twice daily
Excerpt: (A) plots the Birmingham Vasculitis Activity Score; (B) plots the urinary albumin to creatine ration; (C) plots the EuroQOL-5D-5L visual analgue scale; (D) plots the Short Form-36 physical functioning results; and (E) plots the Short Form-36 role emotional results. Patients receiving high dose prednisone are plotted with diamonds; patients receiving avacopan with low dose prednisone are plotted with squares; and patients receiving avacopan with no prednisone are plotted with triangles.
as §1

properdin = experiment: Plasma properdin by ELISA in AAV patients of the CLEAR trial; settings: for Properdin, change in plasma level (Summary of Results): AAV patients, 12 week treatment period, all also received cyclophosphamide or rituximab; for circulating properdin levels, change from baseline: any treatment group, 6 h, days 8, 29, 85
Experimental: as §1, §2, §3, §4

complement factor C5a = experiment: Plasma complement factor C5a by ELISA in AAV patients of the CLEAR trial; settings: for C5a, change in plasma level (Summary of Results): AAV patients, 12 week treatment period, all also received cyclophosphamide or rituximab
Experimental: as §1, §2, §3, §4

complement factor C3a = experiment: Plasma complement factor C3a by ELISA in AAV patients of the CLEAR trial; settings: for C3a, change in plasma level (Summary of Results): AAV patients, 12 week treatment period, all also received cyclophosphamide or rituximab; for C3a levels compared to baseline: full dose prednisone
Experimental: as §1, §2, §3, §4

[1] = CLEAR trial, AAV patients, avacopan with low dose or no prednisone
[2] = day 85, when prednisone was tapered

## Cc1ccc(NC(=O)[C@H]2CCCN(C(=O)c3c(C)cccc3F)[C@H]2c2ccc(NC3CCCC3)cc2)cc1C(F)(F)F [Avacopan, avacopan]
sC5b-9
  sC5b-9, change in plasma level (Summary of Results): No changes
  circulating sC5b-9 levels, change from baseline: did not change; also recorded: No statistically significant changes
Complement factor Bb
  Bb, change in plasma level (Summary of Results): No changes
Complement factor Bb; avacopan 30 mg twice daily with low dose or no prednisone, 6 h, days 8, 29, 85
  Bb levels during treatment compared to pre-dose: did not impact; also recorded: No change
Patients with AAV
  clinical benefit / improvement in AAV: achieved clinical benefit; also recorded: rapid improvement
Patients with AAV; listed as avacopan
  clinical benefit / improvement in AAV: rapidly improves
Patients with AAV; [1]
  disease activity (Birmingham Vasculitis Activity Score, urinary albumin to creatinine ratio): rapid decrease
  health-related quality of life (EuroQOL-5D-5L, Short Form-36): significant improvement
properdin
  Properdin, change in plasma level (Summary of Results): No changes
  circulating properdin levels, change from baseline: No statistically significant changes
Complement factor C5a
  C5a, change in plasma level (Summary of Results): No changes
Complement factor C5a; avacopan 30 mg twice daily with low or no prednisone, 6 h, days 8, 29, 85
  C5a levels during treatment compared to baseline: did not impact; also recorded: No change
Complement factor C3a
  C3a, change in plasma level (Summary of Results): No changes
Complement factor C3a; avacopan 30 mg twice daily without prednisone, 6 h, days 8, 29, 85
  C3a levels during treatment compared to baseline: did not impact; also recorded: No change

## C[C@]12C=CC(=O)C=C1CC[C@@H]1[C@@H]2C(=O)C[C@@]2(C)[C@H]1CC[C@]2(O)C(=O)CO [Prednisone, prednisone]
sC5b-9
  sC5b-9, change in plasma level (Summary of Results): No changes
  circulating sC5b-9 levels, change from baseline: No statistically significant changes
Complement factor Bb
  Bb, change in plasma level (Summary of Results): ↓
Complement factor Bb; [2]
  Bb levels: rising again; also recorded: rose again
Complement factor Bb; days 8 and 29, full dose prednisone 60 mg daily, tapered
  Bb levels compared to pre-dose: decreased significantly
properdin
  Properdin, change in plasma level (Summary of Results): No changes
  circulating properdin levels, change from baseline: No statistically significant changes
Complement factor C5a
  C5a, change in plasma level (Summary of Results): ↓
Complement factor C5a; day 8 and 29, high dose prednisone
  C5a levels compared to baseline: decreased significantly; also recorded: decrease
Complement factor C5a; [2]
  C5a levels: rising again; also recorded: rose again
Complement factor C3a; 6 hours
  C3a levels compared to baseline: decreased
Complement factor C3a
  C3a, change in plasma level (Summary of Results): ↓
Complement factor C3a; [2]
  C3a levels: rising again; also recorded: rose again
Complement factor C3a; days 8 and 29
  C3a levels compared to baseline: decreased significantly; also recorded: further decreased
